Source: patent US10052320B2, “Substituted quinoxalines as FGFR kinase inhibitors” (ASTEX THERAPEUTICS LIMITED, priority 2011, dated 2018)
Values joined by “and” are separate entries in the source; they are usually repeats but may differ in a detail not shown here. Equal values may be shown once.

Legend:
[1] = target: FGFR4 (h) (Homo sapiens, UniProt P22455); assay: FGFR4 (enzymatic assay), TR-FRET; format: biochemical; settings: read-out: FGFR 4 pIC50 (converted)
Method: In a final reaction volume of 30 μL, FGFR4 (h) (60 ng/ml) was incubated with 50 mM HEPES pH 7.5, 6 mM MnCl2, 1 mM DTT, 0.1 mM Na3VO4, 0.01% Triton-X-100, 500 nM Btn-Flt3 and 5 μM ATP in the presence of compound (1% DMSO final). […] Time-Resolved Fluorescence Resonance Energy Transfer (TR-FRET) signal (ex340 nm. Em 620 nm, em 655 nm) was measured afterwards and results are expressed in RFU (Relative Fluorescence Units).

[2] = target: KDR (h) (VEGFR2) (Homo sapiens, UniProt P35968); assay: KDR (VEGFR2) (enzymatic assay), TR-FRET; format: biochemical
In short: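 3 μM ATP, 500 nM Btn-Flt3 substrate, 150 ng/ml kinase; HEPES pH 7.5 with MnCl2, DTT, vanadate, Triton; 1% DMSO. 120 min RT. Stop: EDTA + Eu-anti-P-Tyr + SA-XL-665, 60 min RT. Readout TR-FRET ex340/em620, 655 nm, RFU.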

[3] = target: Ba/F3-FGFR1-transfected cells (Homo sapiens, UniProt P11362); assay: Ba/F3-FGFR1 (minus IL3) cellular proliferation assay, Alamar Blue; format: cell-based; settings: for BAF3-FGFR 1 (MIN IL3) 384 well pIC50: minus IL3, 384 well; for BAF3-FGFR 1 (MIN IL3) 96 well pIC50: minus IL3, 96 well
In short: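 Readout: resazurin reduction, RFU at ex 540 nm/em 590 nm, measured after 4 h with Alamar Blue. This follows 24 h compound treatment (DMSO dilutions) at 37 °C, 5% CO2 in phenol red-free RPMI-1640 plus 10% FBS, at 20000 or 10000 cells/well depending on format.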

[4] = target: Ba/F3-FGFR3-transfected cells (Homo sapiens, UniProt P22607); assay: Ba/F3-FGFR3 (minus IL3) cellular proliferation assay, Alamar Blue; format: cell-based; settings: for BAF3-FGFR 3 (MIN IL3) 384 well pIC50: minus IL3, 384 well; for BAF3-FGFR 3 (MIN IL3) 96 well pIC50: minus IL3, 96 well
In short: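 Proliferation read-out: Alamar Blue fluorescence (ex 540, em 590 nm) after 4 h with resazurin, following 24 h compound treatment of FGFR3-transfected Ba/F3 cells at 37 °C. Counterscreen run identically with 10 ng/ml murine IL3 added.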

[5] = target: Ba/F3-FGFR4-transfected cells (Homo sapiens, UniProt P22455); assay: Ba/F3-FGFR4 cellular proliferation assay, Alamar Blue; format: cell-based
In short: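 Alamar Blue fluorescence (540/590 nm, 4 h development) measured growth of FGFR4-transfected Ba/F3 cells after 24 h compound treatment at 37° C. Cells were seeded at 20000/well in RPMI-1640, 10% FBS.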

Sequence of Ba/F3-FGFR1-transfected cells (P11362 whole entry, change not shown): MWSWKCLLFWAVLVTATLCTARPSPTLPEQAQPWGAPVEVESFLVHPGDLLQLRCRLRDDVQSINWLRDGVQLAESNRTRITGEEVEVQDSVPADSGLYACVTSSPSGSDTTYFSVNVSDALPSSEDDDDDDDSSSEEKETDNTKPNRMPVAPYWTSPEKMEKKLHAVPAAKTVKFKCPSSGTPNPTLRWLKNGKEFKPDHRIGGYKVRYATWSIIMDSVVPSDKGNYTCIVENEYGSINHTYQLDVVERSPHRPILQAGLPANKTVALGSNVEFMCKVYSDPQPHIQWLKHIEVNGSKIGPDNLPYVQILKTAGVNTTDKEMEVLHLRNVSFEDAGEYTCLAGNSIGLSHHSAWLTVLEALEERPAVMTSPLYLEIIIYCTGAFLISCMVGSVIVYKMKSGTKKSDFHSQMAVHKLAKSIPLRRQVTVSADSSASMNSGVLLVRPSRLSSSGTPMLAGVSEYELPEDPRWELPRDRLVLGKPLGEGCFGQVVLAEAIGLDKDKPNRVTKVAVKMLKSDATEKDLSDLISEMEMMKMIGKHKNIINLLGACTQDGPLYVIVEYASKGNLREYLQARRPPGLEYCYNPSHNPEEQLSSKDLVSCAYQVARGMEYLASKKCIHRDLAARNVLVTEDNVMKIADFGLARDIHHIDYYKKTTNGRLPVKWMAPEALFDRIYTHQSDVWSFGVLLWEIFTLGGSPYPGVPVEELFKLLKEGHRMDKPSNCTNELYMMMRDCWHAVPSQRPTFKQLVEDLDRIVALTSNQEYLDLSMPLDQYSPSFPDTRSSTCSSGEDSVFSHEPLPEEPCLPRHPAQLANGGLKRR
Sequence of FGFR4 (h) (P22455 22-802): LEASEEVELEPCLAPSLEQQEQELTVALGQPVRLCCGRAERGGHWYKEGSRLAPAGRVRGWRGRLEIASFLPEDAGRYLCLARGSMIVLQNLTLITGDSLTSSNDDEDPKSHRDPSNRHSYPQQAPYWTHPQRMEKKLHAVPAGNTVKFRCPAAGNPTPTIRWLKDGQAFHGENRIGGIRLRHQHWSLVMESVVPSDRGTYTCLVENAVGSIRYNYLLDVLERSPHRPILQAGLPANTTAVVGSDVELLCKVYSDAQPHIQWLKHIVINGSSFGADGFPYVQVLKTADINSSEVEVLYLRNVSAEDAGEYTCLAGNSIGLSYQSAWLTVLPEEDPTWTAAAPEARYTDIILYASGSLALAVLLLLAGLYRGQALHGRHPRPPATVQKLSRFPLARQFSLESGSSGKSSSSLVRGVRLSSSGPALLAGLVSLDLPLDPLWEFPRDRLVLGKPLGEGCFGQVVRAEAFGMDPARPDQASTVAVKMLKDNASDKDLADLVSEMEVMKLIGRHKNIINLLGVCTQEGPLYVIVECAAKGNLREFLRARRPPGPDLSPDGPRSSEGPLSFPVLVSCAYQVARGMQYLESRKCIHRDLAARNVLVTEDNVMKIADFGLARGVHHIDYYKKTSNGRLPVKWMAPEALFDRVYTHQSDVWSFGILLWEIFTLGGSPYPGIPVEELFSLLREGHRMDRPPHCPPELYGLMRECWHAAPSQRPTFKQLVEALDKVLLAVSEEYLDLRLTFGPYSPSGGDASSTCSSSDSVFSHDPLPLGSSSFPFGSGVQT
Sequence of Ba/F3-FGFR3-transfected cells (P22607 whole entry, change not shown): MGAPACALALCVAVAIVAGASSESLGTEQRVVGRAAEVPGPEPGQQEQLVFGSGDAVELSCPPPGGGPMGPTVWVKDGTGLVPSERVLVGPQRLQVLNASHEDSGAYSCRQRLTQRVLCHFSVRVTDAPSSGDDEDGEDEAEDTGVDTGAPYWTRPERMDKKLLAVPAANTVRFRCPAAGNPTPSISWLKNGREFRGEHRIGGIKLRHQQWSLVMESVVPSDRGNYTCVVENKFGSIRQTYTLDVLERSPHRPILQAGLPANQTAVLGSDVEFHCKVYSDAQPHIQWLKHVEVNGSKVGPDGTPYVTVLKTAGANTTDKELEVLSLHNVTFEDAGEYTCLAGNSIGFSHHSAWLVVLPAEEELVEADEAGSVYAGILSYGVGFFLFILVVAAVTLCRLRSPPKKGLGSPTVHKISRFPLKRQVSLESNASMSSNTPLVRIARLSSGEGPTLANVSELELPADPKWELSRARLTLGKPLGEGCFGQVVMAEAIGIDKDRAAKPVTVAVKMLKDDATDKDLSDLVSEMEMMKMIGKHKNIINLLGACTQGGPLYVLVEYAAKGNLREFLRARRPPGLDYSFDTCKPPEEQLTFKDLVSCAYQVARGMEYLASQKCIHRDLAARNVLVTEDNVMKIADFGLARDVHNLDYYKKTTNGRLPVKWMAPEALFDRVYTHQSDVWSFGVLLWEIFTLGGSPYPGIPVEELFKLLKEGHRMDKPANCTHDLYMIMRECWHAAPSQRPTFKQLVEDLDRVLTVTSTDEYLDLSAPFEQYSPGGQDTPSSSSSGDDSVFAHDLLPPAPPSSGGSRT
Sequence of Ba/F3-FGFR4-transfected cells (P22455 whole entry, change not shown): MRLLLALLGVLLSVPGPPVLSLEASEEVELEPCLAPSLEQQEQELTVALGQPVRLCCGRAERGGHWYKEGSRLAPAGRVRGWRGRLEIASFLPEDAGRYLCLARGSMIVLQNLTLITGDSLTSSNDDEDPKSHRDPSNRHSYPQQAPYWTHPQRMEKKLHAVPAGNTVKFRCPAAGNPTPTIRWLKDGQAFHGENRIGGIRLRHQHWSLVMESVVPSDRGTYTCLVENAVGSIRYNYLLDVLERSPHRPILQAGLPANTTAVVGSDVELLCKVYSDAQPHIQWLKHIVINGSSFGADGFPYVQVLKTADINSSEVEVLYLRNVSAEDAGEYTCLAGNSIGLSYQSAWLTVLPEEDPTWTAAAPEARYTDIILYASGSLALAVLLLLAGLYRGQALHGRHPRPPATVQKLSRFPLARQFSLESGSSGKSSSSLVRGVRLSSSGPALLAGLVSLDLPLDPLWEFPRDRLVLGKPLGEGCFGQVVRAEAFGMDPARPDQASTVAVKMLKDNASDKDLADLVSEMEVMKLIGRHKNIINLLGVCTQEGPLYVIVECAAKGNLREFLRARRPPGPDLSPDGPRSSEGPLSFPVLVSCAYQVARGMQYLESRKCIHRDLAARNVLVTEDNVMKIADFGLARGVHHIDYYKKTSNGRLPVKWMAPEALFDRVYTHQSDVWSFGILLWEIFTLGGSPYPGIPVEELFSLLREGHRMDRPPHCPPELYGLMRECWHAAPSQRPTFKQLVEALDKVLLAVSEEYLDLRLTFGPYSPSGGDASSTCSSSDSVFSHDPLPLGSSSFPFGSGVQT
Sequence of KDR (h) (VEGFR2) (P35968 20-1356): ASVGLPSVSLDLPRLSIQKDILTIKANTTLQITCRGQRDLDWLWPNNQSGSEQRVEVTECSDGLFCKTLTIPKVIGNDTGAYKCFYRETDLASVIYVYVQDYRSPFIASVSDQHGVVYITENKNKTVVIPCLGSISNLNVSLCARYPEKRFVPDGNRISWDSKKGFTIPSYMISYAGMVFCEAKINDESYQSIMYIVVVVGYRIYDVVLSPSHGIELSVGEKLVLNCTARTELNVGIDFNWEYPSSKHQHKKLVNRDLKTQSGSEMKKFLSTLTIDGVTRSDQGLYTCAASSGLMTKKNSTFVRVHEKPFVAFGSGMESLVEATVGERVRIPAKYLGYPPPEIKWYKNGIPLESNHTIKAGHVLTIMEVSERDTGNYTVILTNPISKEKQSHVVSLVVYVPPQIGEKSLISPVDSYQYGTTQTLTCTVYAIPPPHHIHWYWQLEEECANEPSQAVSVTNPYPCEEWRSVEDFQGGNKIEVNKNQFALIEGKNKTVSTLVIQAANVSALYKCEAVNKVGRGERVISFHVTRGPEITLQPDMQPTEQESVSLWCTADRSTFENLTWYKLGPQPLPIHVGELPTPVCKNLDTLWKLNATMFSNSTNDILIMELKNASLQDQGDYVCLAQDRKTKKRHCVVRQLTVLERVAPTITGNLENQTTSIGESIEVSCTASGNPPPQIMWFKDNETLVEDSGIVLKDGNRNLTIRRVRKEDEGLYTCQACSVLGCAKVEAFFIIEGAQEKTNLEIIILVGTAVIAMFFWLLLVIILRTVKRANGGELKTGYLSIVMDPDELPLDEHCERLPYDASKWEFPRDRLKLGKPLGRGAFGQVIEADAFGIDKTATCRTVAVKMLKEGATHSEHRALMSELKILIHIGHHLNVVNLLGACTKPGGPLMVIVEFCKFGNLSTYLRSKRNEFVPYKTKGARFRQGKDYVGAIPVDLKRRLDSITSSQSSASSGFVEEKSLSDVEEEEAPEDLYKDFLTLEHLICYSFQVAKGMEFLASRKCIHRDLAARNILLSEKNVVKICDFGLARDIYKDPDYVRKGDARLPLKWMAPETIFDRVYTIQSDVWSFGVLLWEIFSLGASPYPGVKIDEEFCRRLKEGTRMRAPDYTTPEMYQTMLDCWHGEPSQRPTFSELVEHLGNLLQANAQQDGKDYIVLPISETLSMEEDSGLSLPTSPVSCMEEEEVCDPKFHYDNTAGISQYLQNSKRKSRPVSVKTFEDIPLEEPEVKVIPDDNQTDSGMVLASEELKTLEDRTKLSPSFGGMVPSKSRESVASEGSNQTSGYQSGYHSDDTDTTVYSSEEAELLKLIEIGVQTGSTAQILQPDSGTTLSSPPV

SMILES | IC50 [1] [nM] | IC50 [2] [nM] | BAF3-FGFR 1 (MIN IL3) 384 well pIC50 [3] | BAF3-FGFR 3 (MIN IL3) 384 well pIC50 [4] | BAF3-FGFR4 pIC50 [5] | melting point | BAF3-FGFR 3 (MIN IL3) 96 well pIC50 [4] | BAF3-FGFR 1 (MIN IL3) 96 well pIC50 [3]
COc1cc(OC)cc(N(CCCO)c2ccc3ncc(-c4ccnc(N)c4)nc3c2)c1 [Compound 66] | 13.2 | 75.9 | 7.16 | ~7.05 | 6.3 | 137 °C |  | 
COc1cc(OC)cc(N(CCO)c2ccc3ncc(-c4cccnc4)nc3c2)c1 [Compound 9] | 52.5 | 295 | 6.25 | 6.59 | 5.8 | 151 °C |  | 
COc1cc(OC)cc(N(CC2CC2)c2ccc3ncc(-n4cncn4)nc3c2)c1 [Compound 50] | > 1000 | > 1000 | <5 | <5 | <5 | 168 °C | <5 | <5
COc1cc(OC)cc(N(CC2CC2)c2ccc3ncc(-n4cnc(C)c4)nc3c2)c1 [Compound 30] | 214 | 501 | 5.32 | 5.51 | <5.35 | 113 °C | 5.94 | 5.03
COc1cc(OC)cc(N(CC2CC2)c2ccc3ncc(-c4cn(CCN5CCOCC5)nn4)nc3c2)c1 [Compound 24] | 191 | 832 | 5.39 | ~5.7 | ~5.1 | 128 °C | 5.59 | 5.42
CNC(=O)OCCN(c1cc(OC)cc(OC)c1)c1ccc2ncc(-c3ccc(NC(=O)OC(C)(C)C)nc3)nc2c1 [Compound 80] | > 1000 | > 1000 | 5.08 | 5.09 | <5 | 214 °C |  | 
COc1cc(OC)cc(N(CC2CC2)c2ccc3ncc(-c4cnnn4C)nc3c2)c1 [Compound 72] | > 1000 | > 1000 | 5.18 | <5 | <5 | 169 °C | <5 | 5.23
COc1cc(OC)cc(N(CC2CC2)c2ccc3ncc(-c4cnco4)nc3c2)c1 [Compound 55] | 275 | 912 | <5 | ~5.25 | <5 | 152 °C | 5.65 | 5.37
COc1cc(OC)cc(N(CC2CC2)c2ccc3ncc(-c4cn[nH]n4)nc3c2)c1 [Compound 69] | 251 | > 1000 | 5.01 | <5 | <5 | 173 °C and 172 °C | <5 | 5.22
COCCN(c1cc(OC)cc(OC)c1)c1ccc2ncc(-c3ccn(C)c3)nc2c1 [Compound 6] | 24.5 | 107 | 5.84 | ~6.27 | 5.6 | 135 °C |  | 
COc1cc(OC)cc(N(CC2CC2)c2ccc3ncc(C#Cc4ccncc4)nc3c2)c1 [Compound 23] | > 1000 | > 1000 | 5.09 | 5.1 | <5 | 60 °C | 5.66 | 5.41

More lines, now with the values ahead:

IC50 [1] [nM] | IC50 [2] [nM] | BAF3-FGFR 1 (MIN IL3) 384 well pIC50 [3] | BAF3-FGFR 3 (MIN IL3) 384 well pIC50 [4] | BAF3-FGFR4 pIC50 [5] | melting point | BAF3-FGFR 3 (MIN IL3) 96 well pIC50 [4] | BAF3-FGFR 1 (MIN IL3) 96 well pIC50 [3] | SMILES
145 | 275 | 6.25 | 6.81 | 6.2 | 169 °C |  |  | COc1cc(OC)cc(N(CC2CO2)c2ccc3ncc(-c4ccc(N)nc4)nc3c2)c1 (centres unmarked) [Compound 110]
117 | 661 | 5.31 | 5.51 | 5.1 | 130 °C |  |  | COc1cc(OC)cc(N(CCCO)c2ccc3ncc(-c4ccnc(C(=O)NCCCCN)c4)nc3c2)c1 [Compound 126]
> 1000 | > 1000 | <5 | <5 | <5 | 213 °C | <5 |  | COc1cc(OC)cc(N(CC2CC2)c2ccc3ncc(Nc4nccs4)nc3c2)c1 [Compound 98]
38 | 309 | 5.93 | 6.29 | 5.7 | 166 °C |  |  | COc1cc(OC)cc(N(CCCO)c2ccc3ncc(-c4ccc(C)nc4)nc3c2)c1 [Compound 115]
174 | > 1000 | 5.37 | ~6.04 | <5 | 143 °C |  |  | COc1cc(OC)cc(N(CCCO)c2ccc3ncc(-c4ccc(N(C)C(=O)OC(C)(C)C)nc4)nc3c2)c1 [Compound 125]
> 1000 | > 1000 | <5 | <5 | <5 | 260 °C | <5 | <5 | COc1cc(OC)cc(N(CC2CC2)c2ccc3ncc(Nc4nncs4)nc3c2)c1 [Compound 102]
575 | > 1000 | <5 | <5 | <5 | 141 °C |  |  | COc1cc(OC)cc(N(CC2CC2)c2ccc3ncc(-c4ocnc4C)nc3c2)c1 [Compound 104]
1050 | > 10000 | <5 | <5 | <5 | 148 °C | <5 |  | COc1cc(OC)cc(N(CC2CC2)c2ccc3ncc(-c4nccs4)nc3c2)c1 [Compound 97]
> 1000 | > 1000 | <5 | <5 | <5 | 140 °C | <5 | <5 | COc1cc(OC)cc(N(CC2CC2)c2ccc3ncc(C(=O)NCc4ccc(F)cc4)nc3c2)c1 [Compound 101]
58.9 | 468 | 6.11 | ~6.39 | 5.8 | 150 °C |  |  | COc1cc(OC)cc(N(CCCO)c2ccc3ncc(-c4cccnc4)nc3c2)c1 [Compound 112]
